According to ChEMBL document CHEMBL4507263, “Data for DCP probe BAY-474” (2021):

Experiments:
[1] = GPCRScan assay: inhibition of GABA/PBR; set-up: species or system Rattus norvegicus; radioligand conc. used [nm] 0.3 – 2.0, parental cells brain tissue
[2] = molecular target: Activin receptor type-1B (Homo sapiens) (UniProt P36896); details: Compound concentration 1000.0 nM
[3] = molecular target: Activin receptor type-2B (Homo sapiens) (UniProt Q13705); details: Compound concentration 1000.0 nM
[4] = molecular target: Activin receptor type-1-like (Homo sapiens) (UniProt P37023); details: Compound concentration 1000.0 nM
[5] = molecular target: Cytoplasmic tyrosine-protein kinase BMX (Homo sapiens) (UniProt P51813); details: Compound concentration 1000.0 nM
[6] = molecular target: Serine/threonine-protein kinase BRSK1 (Homo sapiens) (UniProt Q8TDC3); details: Compound concentration 1000.0 nM
[7] = molecular target: Calcium/calmodulin-dependent protein kinase type II subunit beta (Homo sapiens) (UniProt Q13554); details: Compound concentration 1000.0 nM
[8] = molecular target: Cyclin-dependent kinase 7 (Homo sapiens) (UniProt P50613); details: Compound concentration 1000.0 nM
[9] = molecular target: Dual specificity tyrosine-phosphorylation-regulated kinase 1A (Homo sapiens) (UniProt Q13627); details: Compound concentration 1000.0 nM
[10] = molecular target: Epidermal growth factor receptor (Homo sapiens) (UniProt P00533); details: Compound concentration 1000.0 nM
[11] = tested on: Epidermal growth factor receptor (Homo sapiens), P00533 [L861Q]; details: Compound concentration 1000.0 nM
[12] = molecular target: Ephrin type-A receptor 8 (Homo sapiens) (UniProt P29322); details: Compound concentration 1000.0 nM
[13] = molecular target: Ephrin type-B receptor 1 (Homo sapiens) (UniProt P54762); details: Compound concentration 1000.0 nM
[14] = molecular target: Receptor tyrosine-protein kinase erbB-2 (Homo sapiens) (UniProt P04626); details: Compound concentration 1000.0 nM
[15] = tested on: Receptor-type tyrosine-protein kinase FLT3 (Homo sapiens), P36888 [UNDEFINED MUTATION]; details: Compound concentration 1000.0 nM
[16] = molecular target: Tyrosine-protein kinase Fyn (Homo sapiens) (UniProt P06241); details: Compound concentration 1000.0 nM
[17] = molecular target: Homeodomain-interacting protein kinase 1 (Homo sapiens) (UniProt Q86Z02); details: Compound concentration 1000.0 nM
[18] = molecular target: Serine/threonine-protein kinase mTOR (Homo sapiens) (UniProt P42345); details: Compound concentration 1000.0 nM
[19] = molecular target: Muscle, skeletal receptor tyrosine-protein kinase (Homo sapiens) (UniProt O15146); details: Compound concentration 1000.0 nM
[20] = molecular target: Myosin light chain kinase 2, skeletal/cardiac muscle (Homo sapiens) (UniProt Q9H1R3); details: Compound concentration 1000.0 nM
[21] = molecular target: Myosin-IIIa (Homo sapiens) (UniProt Q8NEV4); details: Compound concentration 1000.0 nM
[22] = molecular target: Mitogen-activated protein kinase 13 (Homo sapiens) (UniProt O15264); details: Compound concentration 1000.0 nM
[23] = molecular target: Phosphorylase b kinase regulatory subunit alpha, liver isoform (Homo sapiens) (UniProt P46019); details: Compound concentration 1000.0 nM
[24] = molecular target: cGMP-dependent protein kinase 2 (Homo sapiens) (UniProt Q13237); details: Compound concentration 1000.0 nM
[25] = molecular target: RAF proto-oncogene serine/threonine-protein kinase (Homo sapiens) (UniProt P04049); details: Compound concentration 1000.0 nM
[26] = molecular target: Rho-associated protein kinase 1 (Homo sapiens) (UniProt Q13464); details: Compound concentration 1000.0 nM
[27] = molecular target: Serine/threonine-protein kinase SIK1 (Homo sapiens) (UniProt P57059); details: Compound concentration 1000.0 nM
[28] = molecular target: Tyrosine-protein kinase Srms (Homo sapiens) (UniProt Q9H3Y6); details: Compound concentration 1000.0 nM
[29] = molecular target: Serine/threonine-protein kinase TAO2 (Homo sapiens) (UniProt Q9UL54); details: Compound concentration 1000.0 nM
[30] = molecular target: Non-receptor tyrosine-protein kinase TNK1 (Homo sapiens) (UniProt Q13470); details: Compound concentration 1000.0 nM
[31] = molecular target: Serine/threonine-protein kinase WNK2 (Homo sapiens) (UniProt Q9Y3S1); details: Compound concentration 1000.0 nM
[32] = molecular target: Sodium-dependent noradrenaline transporter (Homo sapiens) (UniProt P23975); details: Compound concentration 10.0 uM
[33] = molecular target: Tyrosine-protein kinase receptor UFO (Homo sapiens) (UniProt P30530); experiment: Axl (h) Millipore kinase activity assay; details: Compound concentration 1.0 uM
[34] = molecular target: Calcium/calmodulin-dependent protein kinase type IV (Homo sapiens) (UniProt Q16566); experiment: CaMKIV (h) Millipore kinase activity assay; details: Compound concentration 1.0 uM
[35] = molecular target: Cyclin-dependent kinase 3 (Homo sapiens) (UniProt Q00526); experiment: CDK3/cyclinE (h) Millipore kinase activity assay; details: Compound concentration 1.0 uM
[36] = molecular target: Fibroblast growth factor receptor 2 (Homo sapiens) (UniProt P21802); experiment: FGFR2 (h) Millipore kinase activity assay; details: Compound concentration 1.0 uM
[37] = molecular target: Serine/threonine-protein kinase haspin (Homo sapiens) (UniProt Q8TF76); experiment: Haspin (h) Millipore kinase activity assay; details: Compound concentration 1.0 uM
[38] = molecular target: Insulin receptor (Homo sapiens) (UniProt P06213); experiment: IR (h) Millipore kinase activity assay; details: Compound concentration 1.0 uM
[39] = molecular target: Dual specificity mitogen-activated protein kinase kinase 4 (Mus musculus) (UniProt P47809); experiment: MKK4 (m) Millipore kinase activity assay; details: Compound concentration 1.0 uM
[40] = molecular target: Serine/threonine-protein kinase Nek3 (Homo sapiens) (UniProt P51956); experiment: NEK3 (h) Millipore kinase activity assay; details: Compound concentration 1.0 uM
[41] = molecular target: Serine/threonine-protein kinase PAK 4 (Homo sapiens) (UniProt O96013); experiment: PAK4 (h) Millipore kinase activity assay; details: Compound concentration 1.0 uM
[42] = molecular target: Serine/threonine-protein kinase WNK3 (Homo sapiens) (UniProt Q9BYP7); experiment: WNK3 (h) Millipore kinase activity assay; details: Compound concentration 1.0 uM
[43] = molecular target: Neuropeptide Y receptor type 1 (Homo sapiens) (UniProt P25929); experiment: Inhibition of Neuropeptide Y Y1 at 10 µM in the Eurofins-Panlabs radioligand binding assay (Eurofins_assay_257010); details: Compound concentration 10.0 uM
[44] = molecular target: Platelet-activating factor receptor (Homo sapiens) (UniProt P25105); experiment: Inhibition of Platelet Activating Factor (PAF) at 10 µM in the Eurofins-Panlabs radioligand binding assay (Eurofins_assay_265010); details: Compound concentration 10.0 uM
[45] = molecular target: Adenosine receptor A2a (Homo sapiens) (UniProt P29274); details: Compound concentration 10.0 uM
Sequence of Adenosine receptor A2a (Homo sapiens) (P29274 whole entry): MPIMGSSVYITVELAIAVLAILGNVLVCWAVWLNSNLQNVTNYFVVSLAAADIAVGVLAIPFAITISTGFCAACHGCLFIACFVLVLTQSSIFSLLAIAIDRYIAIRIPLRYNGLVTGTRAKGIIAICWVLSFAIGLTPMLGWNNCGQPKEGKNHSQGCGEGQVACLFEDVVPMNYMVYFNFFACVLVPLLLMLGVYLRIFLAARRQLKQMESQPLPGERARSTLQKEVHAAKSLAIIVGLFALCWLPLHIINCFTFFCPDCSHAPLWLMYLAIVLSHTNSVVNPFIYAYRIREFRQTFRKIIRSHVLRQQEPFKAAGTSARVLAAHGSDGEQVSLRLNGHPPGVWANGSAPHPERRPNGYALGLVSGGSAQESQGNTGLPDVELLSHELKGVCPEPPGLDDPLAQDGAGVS

Sequence of Serine/threonine-protein kinase haspin (Homo sapiens) (Q8TF76 whole entry): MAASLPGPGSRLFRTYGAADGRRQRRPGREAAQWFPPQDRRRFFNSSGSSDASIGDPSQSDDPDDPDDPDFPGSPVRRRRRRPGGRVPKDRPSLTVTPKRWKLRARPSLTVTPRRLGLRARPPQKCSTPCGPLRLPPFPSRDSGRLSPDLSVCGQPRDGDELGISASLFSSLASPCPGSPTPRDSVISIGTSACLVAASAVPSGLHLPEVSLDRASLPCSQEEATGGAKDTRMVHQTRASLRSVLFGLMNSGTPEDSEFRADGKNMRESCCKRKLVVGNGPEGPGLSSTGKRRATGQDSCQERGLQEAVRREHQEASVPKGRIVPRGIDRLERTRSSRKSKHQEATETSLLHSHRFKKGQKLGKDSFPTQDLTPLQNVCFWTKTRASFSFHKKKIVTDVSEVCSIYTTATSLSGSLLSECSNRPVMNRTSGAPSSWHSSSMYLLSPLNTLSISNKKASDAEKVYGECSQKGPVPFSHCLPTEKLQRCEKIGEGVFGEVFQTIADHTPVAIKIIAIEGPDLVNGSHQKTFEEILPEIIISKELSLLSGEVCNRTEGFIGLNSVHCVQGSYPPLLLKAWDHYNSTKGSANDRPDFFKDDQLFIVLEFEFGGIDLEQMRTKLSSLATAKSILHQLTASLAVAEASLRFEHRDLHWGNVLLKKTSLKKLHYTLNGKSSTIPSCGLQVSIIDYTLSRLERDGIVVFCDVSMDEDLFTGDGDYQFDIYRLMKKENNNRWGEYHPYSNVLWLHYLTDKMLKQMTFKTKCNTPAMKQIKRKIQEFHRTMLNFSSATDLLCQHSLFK
Sequence of Platelet-activating factor receptor (Homo sapiens) (P25105 whole entry): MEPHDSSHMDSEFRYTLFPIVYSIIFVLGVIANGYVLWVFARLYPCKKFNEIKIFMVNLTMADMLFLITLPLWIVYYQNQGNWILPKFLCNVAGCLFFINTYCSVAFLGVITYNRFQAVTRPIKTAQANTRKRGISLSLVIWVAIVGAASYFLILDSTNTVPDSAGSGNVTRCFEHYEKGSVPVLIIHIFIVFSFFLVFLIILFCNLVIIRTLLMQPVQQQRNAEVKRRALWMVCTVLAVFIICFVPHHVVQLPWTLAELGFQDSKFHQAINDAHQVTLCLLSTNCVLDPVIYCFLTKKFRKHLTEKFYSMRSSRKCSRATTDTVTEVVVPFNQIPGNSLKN
Sequence of Fibroblast growth factor receptor 2 (Homo sapiens) (P21802 22-821 limits assumed): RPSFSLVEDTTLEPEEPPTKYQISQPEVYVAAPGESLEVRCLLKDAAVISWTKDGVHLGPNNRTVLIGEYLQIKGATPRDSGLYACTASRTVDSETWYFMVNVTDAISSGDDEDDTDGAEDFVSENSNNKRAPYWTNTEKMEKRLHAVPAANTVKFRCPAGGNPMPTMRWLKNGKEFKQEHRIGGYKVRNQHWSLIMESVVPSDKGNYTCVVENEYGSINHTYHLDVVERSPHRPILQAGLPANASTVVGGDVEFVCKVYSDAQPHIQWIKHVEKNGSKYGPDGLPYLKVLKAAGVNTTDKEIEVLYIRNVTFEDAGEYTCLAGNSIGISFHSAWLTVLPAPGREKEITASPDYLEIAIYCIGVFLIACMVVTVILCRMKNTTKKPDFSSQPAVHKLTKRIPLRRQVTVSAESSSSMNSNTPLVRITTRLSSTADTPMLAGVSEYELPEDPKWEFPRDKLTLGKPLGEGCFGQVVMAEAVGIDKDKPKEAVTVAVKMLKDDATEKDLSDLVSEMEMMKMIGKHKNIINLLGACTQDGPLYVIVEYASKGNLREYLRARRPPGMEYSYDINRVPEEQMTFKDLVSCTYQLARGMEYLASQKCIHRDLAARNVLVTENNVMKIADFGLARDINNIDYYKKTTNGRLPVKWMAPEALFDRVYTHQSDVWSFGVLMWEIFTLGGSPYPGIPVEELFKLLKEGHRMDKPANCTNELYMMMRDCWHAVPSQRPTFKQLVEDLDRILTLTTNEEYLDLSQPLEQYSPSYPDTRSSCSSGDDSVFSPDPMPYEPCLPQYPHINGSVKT
Sequence of Myosin light chain kinase 2, skeletal/cardiac muscle (Homo sapiens) (Q9H1R3 whole entry): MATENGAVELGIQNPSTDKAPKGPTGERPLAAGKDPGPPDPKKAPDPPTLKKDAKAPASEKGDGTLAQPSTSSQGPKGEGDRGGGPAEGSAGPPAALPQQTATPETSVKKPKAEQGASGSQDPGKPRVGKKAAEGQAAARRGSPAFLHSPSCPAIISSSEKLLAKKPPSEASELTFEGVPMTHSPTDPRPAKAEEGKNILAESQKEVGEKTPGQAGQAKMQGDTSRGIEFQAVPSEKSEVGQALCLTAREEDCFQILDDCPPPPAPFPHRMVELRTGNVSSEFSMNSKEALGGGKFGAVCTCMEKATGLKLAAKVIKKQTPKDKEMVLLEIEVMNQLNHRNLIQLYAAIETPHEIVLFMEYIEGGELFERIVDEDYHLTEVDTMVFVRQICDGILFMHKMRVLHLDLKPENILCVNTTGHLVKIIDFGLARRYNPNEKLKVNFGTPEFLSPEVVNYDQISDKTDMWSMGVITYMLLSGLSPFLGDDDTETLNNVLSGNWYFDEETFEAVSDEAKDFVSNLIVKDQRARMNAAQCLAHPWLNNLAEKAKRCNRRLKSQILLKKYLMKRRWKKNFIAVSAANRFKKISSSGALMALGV
Sequence of Calcium/calmodulin-dependent protein kinase type II subunit beta (Homo sapiens) (Q13554 whole entry): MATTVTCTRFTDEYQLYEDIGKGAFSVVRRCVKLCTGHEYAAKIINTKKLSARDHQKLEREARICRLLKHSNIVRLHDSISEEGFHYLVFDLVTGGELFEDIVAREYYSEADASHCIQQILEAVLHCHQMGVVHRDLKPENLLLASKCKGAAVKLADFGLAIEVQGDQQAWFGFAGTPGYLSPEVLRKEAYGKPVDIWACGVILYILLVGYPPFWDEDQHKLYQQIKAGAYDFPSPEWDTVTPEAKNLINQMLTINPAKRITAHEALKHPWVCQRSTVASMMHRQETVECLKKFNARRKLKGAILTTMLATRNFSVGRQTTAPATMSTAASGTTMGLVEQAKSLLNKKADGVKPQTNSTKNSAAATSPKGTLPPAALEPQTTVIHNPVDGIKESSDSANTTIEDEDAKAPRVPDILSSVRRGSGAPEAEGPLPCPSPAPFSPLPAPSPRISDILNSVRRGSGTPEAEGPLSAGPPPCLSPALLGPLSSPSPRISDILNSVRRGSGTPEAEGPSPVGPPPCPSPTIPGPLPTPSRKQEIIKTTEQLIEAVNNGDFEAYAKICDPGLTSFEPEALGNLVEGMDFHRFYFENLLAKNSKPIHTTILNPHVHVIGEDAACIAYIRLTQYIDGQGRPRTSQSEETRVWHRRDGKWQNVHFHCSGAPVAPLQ
Sequence of Dual specificity mitogen-activated protein kinase kinase 4 (Mus musculus) (P47809 whole entry): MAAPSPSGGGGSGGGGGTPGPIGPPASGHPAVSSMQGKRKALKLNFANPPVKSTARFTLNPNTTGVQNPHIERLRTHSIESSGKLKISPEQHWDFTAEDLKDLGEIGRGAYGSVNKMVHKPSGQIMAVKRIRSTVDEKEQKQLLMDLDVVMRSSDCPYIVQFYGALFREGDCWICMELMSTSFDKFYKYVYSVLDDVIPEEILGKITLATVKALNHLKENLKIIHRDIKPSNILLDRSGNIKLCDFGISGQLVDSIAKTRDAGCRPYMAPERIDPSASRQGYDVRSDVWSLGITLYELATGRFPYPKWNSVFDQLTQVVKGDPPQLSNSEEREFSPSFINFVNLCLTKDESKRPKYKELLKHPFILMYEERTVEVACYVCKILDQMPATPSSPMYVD
Sequence of Calcium/calmodulin-dependent protein kinase type IV (Homo sapiens) (Q16566 whole entry): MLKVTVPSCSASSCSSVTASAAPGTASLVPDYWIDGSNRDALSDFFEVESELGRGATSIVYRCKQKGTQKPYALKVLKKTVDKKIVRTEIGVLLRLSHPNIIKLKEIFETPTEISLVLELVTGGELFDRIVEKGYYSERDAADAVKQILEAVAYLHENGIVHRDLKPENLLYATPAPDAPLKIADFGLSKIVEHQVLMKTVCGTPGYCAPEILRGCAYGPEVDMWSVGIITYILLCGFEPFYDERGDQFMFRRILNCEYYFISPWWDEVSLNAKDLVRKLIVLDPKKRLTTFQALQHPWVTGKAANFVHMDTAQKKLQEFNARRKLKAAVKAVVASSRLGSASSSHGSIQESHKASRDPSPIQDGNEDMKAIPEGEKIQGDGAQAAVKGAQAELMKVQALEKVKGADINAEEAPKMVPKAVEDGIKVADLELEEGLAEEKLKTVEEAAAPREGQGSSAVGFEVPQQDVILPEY
Sequence of Mitogen-activated protein kinase 13 (Homo sapiens) (O15264 whole entry, canonical isoform): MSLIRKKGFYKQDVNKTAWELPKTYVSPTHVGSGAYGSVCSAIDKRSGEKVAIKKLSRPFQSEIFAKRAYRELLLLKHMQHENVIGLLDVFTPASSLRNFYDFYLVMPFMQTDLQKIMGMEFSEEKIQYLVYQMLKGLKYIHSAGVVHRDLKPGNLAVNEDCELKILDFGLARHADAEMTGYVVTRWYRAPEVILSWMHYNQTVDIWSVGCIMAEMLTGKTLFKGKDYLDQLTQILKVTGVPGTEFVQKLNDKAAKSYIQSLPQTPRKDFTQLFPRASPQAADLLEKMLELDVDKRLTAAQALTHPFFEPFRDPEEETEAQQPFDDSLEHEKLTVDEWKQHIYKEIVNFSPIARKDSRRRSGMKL

CC1=C(C#N)[C@@H](c2ccc3[nH]nc(C)c3c2)C(C#N)=C(c2ccc(Cl)cc2)N1 [BAY-827]
5.67: pKi [1]
2400 nM: Ki [1]
inactive: residual activity [2] 100% | residual activity [3] 100% | residual activity [4] 79% | residual activity [5] 100% | residual activity [6] 100% | residual activity [7] 100% | residual activity [8] 100% | residual activity [9] 100% | residual activity [10] 100% | residual activity [11] 100% | residual activity [12] 100% | residual activity [13] 100% | residual activity [14] 100% | residual activity [15] 100% | residual activity [16] 69% | residual activity [17] 56.7% | residual activity [18] 79.6% | residual activity [19] 100% | residual activity [20] 91.4% | residual activity [21] 100% | residual activity [22] 100% | residual activity [23] 100% | residual activity [24] 100% | residual activity [25] 100% | residual activity [26] 68.5% | residual activity [27] 100% | residual activity [28] 92.7% | residual activity [29] 100% | residual activity [30] 65% | residual activity [31] 100% | inhibition [32] 8.56%

CC1=C(C#N)C(c2ccc3[nH]nc(C)c3c2)C(C#N)=C(C)N1 [BAY-474]
inactive: inhibition [33] 12% | inhibition [34] -1% | inhibition [35] -4% | inhibition [36] 17% | inhibition [37] 2% | inhibition [38] -9% | inhibition [39] 31% | inhibition [40] -9% | inhibition [41] 3% | inhibition [42] -5% | inhibition [43] 1% | inhibition [44] 6% | inhibition [45] 7%
